Measured values: patent US12077503B2, “Substituted cyclic amides and their use as herbicides” (FMC CORPORATION, priority 2015, dated 2024)

Experiments:
Format in all cases: in vivo
[1] = tested on: ragweed (common ragweed, Ambrosia elatior); test: Test A postemergence; details: Ambrosia artemisiifolia, post-emergence, 240 h, Postemergence, read-out: Plant response rating, Ragweed
How it was run: (§1)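 Treatment is preemergence as a directed soil spray after planting, or postemergence at the one- to two-leaf stage, with test chemical in a non-phytotoxic solvent mixture plus surfactant. Plants stay in the greenhouse about 10 d before visual injury scoring on a 0 to 100 scale versus untreated controls.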

[2] = tested on: blackgrass (Alopecurus myosuroides); test: Test A postemergence; details: Alopecurus myosuroides, post-emergence, 240 h, Postemergence, read-out: Plant response rating, Blackgrass
How it was run: as §1

[3] = tested on: Kochia (Kochia scoparia); test: Test A postemergence; details: Bassia scoparia, post-emergence, 240 h, Postemergence, read-out: Plant response rating, Kochia
How it was run: as §1

[4] = tested on: corn (Zea mays); test: Test A postemergence; details: Zea mays, post-emergence, 240 h, Postemergence
How it was run: as §1

[5] = tested on: wheat (Triticum aestivum); test: Test A postemergence; details: Triticum aestivum, post-emergence, 240 h, Postemergence, read-out: Plant response rating, Wheat
How it was run: as §1

[6] = tested on: giant foxtail (Setaria faberii); test: Test A postemergence; details: Setaria faberi, post-emergence, 240 h, Postemergence, read-out: Plant response rating, Foxtail, Giant
How it was run: as §1

[7] = tested on: barnyardgrass (Echinochloa crus-galli); test: Test A postemergence; details: Echinochloa crus-galli, post-emergence, 240 h, Postemergence, read-out: Plant response rating, Barnyardgrass
How it was run: as §1

[8] = tested on: Galium (catchweed bedstraw, Galium aparine); test: Test A postemergence; details: Galium, post-emergence, 240 h, Postemergence, read-out: Plant response rating, Galium
How it was run: as §1

[9] = tested on: ryegrass, Italian (Italian ryegrass, Lolium multiflorum); test: Test A postemergence; details: Lolium multiflorum, post-emergence, 240 h, Postemergence, read-out: Plant response rating, Ryegrass, Italian
How it was run: as §1

[10] = tested on: ragweed (common ragweed, Ambrosia elatior); test: Test A preemergence; details: Ambrosia artemisiifolia, pre-emergence, 240 h, Preemergence
How it was run: as §1

[11] = tested on: Kochia (Kochia scoparia); test: Test A preemergence; details: Bassia scoparia, pre-emergence, 240 h, Preemergence
How it was run: as §1

[12] = tested on: giant foxtail (Setaria faberii); test: Test A preemergence; details: Setaria faberi, pre-emergence, 240 h, Preemergence
How it was run: as §1

[13] = tested on: barnyardgrass (Echinochloa crus-galli); test: Test A preemergence; details: Echinochloa crus-galli, pre-emergence, 240 h, Preemergence
How it was run: as §1

[14] = tested on: ryegrass, Italian (Italian ryegrass, Lolium multiflorum); test: Test A preemergence; details: Lolium multiflorum, pre-emergence, 240 h, Preemergence
How it was run: as §1

[15] = tested on: pigweed (Amaranthus retroflexus); test: Test A preemergence; details: Amaranthus retroflexus, pre-emergence, 240 h, Preemergence
[16] = 125 g ai/ha, visual injury after approximately 10 d, 0 to 100 scale where 0 is no effect and 100 is complete control
[17] = 31 g ai/ha, visual injury after approx. 10 d, 0 to 100 scale, 0 no effect, 100 complete control

`CCOc1cc([C@H]2CN(C)C(=O)[C@@H]2C(=O)Nc2cccc(F)c2F)cc(C(F)(F)F)c1` [Compound 971] showed a pest or weed control at 125 g/ha [1, 16] of 0%, a pest or weed control at 31 g/ha [1, 17] of 0% and a pest or weed control at 125 g/ha [2, 16] of 50%. It also gave a pest or weed control at 31 g/ha [2, 17] of 40%, a pest or weed control at 125 g/ha [3, 16] of 40% and a pest or weed control at 31 g/ha [3, 17] of 20%. It also gave a Corn plant response rating (crop injury, 0 = no effect, 100 = complete kill) at 125 g/ha [4, 16] of 70%, a Corn plant response rating (crop injury, 0 = no effect, 100 = complete kill) at 31 g/ha [4, 17] of 70% and a plant injury at 125 g/ha [5, 16] of 50%. For the same compound, the plant injury at 31 g/ha [5, 17] was 30%, the pest or weed control at 125 g/ha [6, 16] was 80% and the pest or weed control at 31 g/ha [6, 17] was 80%. The pest or weed control at 125 g/ha [7, 16] was 80%, the pest or weed control at 31 g/ha [7, 17] was 50% and the pest or weed control at 125 g/ha [8, 16] was 40%. It also gave a pest or weed control at 31 g/ha [8, 17] of 20%, a pest or weed control at 125 g/ha [9, 16] of 50% and a pest or weed control at 31 g/ha [9, 17] of 20%. For the same compound, the pest or weed control at 125 g/ha ([10]; 125 g ai/ha, visual injury rating after approximately 10 d, read-out: Ragweed plant response rating (0 to 100 scale, 0 is no effect, 100 is complete control)) was 20%, the pest or weed control at 31 g/ha ([10]; 31 g ai/ha, 0 to 100 scale (0 no effect, 100 complete control), read-out: Plant response rating, Ragweed) was 0% and the pest or weed control at 125 g/ha ([11]; 125 g ai/ha, visual injury rating after approximately 10 d, read-out: Kochia plant response rating (0 to 100 scale, 0 is no effect, 100 is complete control)) was 0%. For the same compound, the pest or weed control at 31 g/ha ([11]; 31 g ai/ha, 0 to 100 scale (0 no effect, 100 complete control), read-out: Plant response rating, Kochia) was 0%, the pest or weed control at 125 g/ha ([12]; 125 g ai/ha, visual injury rating after approximately 10 d, read-out: Foxtail, Giant plant response rating (0 to 100 scale, 0 is no effect, 100 is complete control)) was 90% and the pest or weed control at 31 g/ha ([12]; 31 g ai/ha, 0 to 100 scale (0 no effect, 100 complete control), read-out: Plant response rating, Foxtail, Giant) was 70%. For the same compound, the pest or weed control at 125 g/ha ([13]; 125 g ai/ha, visual injury rating after approximately 10 d, read-out: Barnyardgrass plant response rating (0 to 100 scale, 0 is no effect, 100 is complete control)) was 90%, the pest or weed control at 31 g/ha ([13]; 31 g ai/ha, 0 to 100 scale (0 no effect, 100 complete control), read-out: Plant response rating, Barnyardgrass) was 70% and the pest or weed control at 125 g/ha ([14]; 125 g ai/ha, visual injury rating after approximately 10 d, read-out: Ryegrass, Italian plant response rating (0 to 100 scale, 0 is no effect, 100 is complete control)) was 80%. For the same compound, the pest or weed control at 31 g/ha ([14]; 31 g ai/ha, 0 to 100 scale (0 no effect, 100 complete control), read-out: Plant response rating, Ryegrass, Italian) was 50%, the pest or weed control at 125 g/ha ([15]; 125 g ai/ha, visual injury rating after approximately 10 d, read-out: Pigweed plant response rating (0 to 100 scale, 0 is no effect, 100 is complete control)) was 20% and the pest or weed control at 31 g/ha ([15]; 31 g ai/ha, 0 to 100 scale (0 no effect, 100 complete control), read-out: Plant response rating, Pigweed) was 20%.
